Toxic doses and inconclusive results are not listed. Rule as the data show it: active = T/C of 150% or more; inactive = T/C below 125%.
Test system: L1210 leukemia ip in BDF1 mice, survival T/C
Experiment: NCI In Vivo Anticancer Drug Screen. Data for tumor model L1210 Leukemia (intraperitoneal) in B6D2F1 (BDF1) mice
Conditions: endpoint: mean survival time, higher = longer survival
Procedure, shortened: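 Tumor was transplanted into mice, which were then dosed with test compound or vehicle alone. Survival was recorded for each group, and the treated figure was expressed relative to the control figure.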

[1] = dose: 100.0 mg/kg/injection, schedule: Q04DX003 (ip), vehicle: Klucel (hydroxypropylcellulose) (HPC)
[2] = dose: 200.0 mg/kg/injection, schedule: Q04DX003 (ip), vehicle: Klucel (hydroxypropylcellulose) (HPC)

Measured: T/C

O=c1c2ccccc2cc2ccccn12
inactive: dose: 100.0 mg/kg/injection, schedule: Q01DX009 (ip), vehicle: Klucel (hydroxypropylcellulose) (HPC) 100 % of control | [1] 95 % of control | dose: 200.0 mg/kg/injection, schedule: Q01DX009 (ip), vehicle: Klucel (hydroxypropylcellulose) (HPC) 94 % of control | [2] 97 % of control | dose: 400.0 mg/kg/injection, schedule: Q01DX009 (ip), vehicle: Klucel (hydroxypropylcellulose) (HPC) 92 % of control | dose: 400.0 mg/kg/injection, schedule: Q04DX003 (ip), vehicle: Klucel (hydroxypropylcellulose) (HPC) 97 % of control

COc1cc2ccnc(-c3onc4cc(OC)c(OC)cc34)c2cc1OC
inactive: dose: 75.0 mg/kg/injection, schedule: Q01DX001 (ip), vehicle: saline 101 % of control | dose: 150.0 mg/kg/injection, schedule: Q01DX001 (ip), vehicle: saline 98 % of control | dose: 300.0 mg/kg/injection, schedule: Q01DX001 (ip), vehicle: saline 98 % of control

OC1(C2(O)CCCC2)CCCC1
inactive: dose: 100.0 mg/kg/injection, schedule: Q04DX003 (ip), vehicle: saline with Tween-80 98 % of control | dose: 200.0 mg/kg/injection, schedule: Q04DX003 (ip), vehicle: saline with Tween-80 98 % of control | dose: 400.0 mg/kg/injection, schedule: Q04DX003 (ip), vehicle: saline with Tween-80 95 % of control

S=C(Nc1ccccc1)NC1CCC(CC2CCCCC2)CC1 (configuration not stated)
inactive: dose: 75.0 mg/kg/injection, schedule: Q01DX009 (ip), vehicle: Klucel (hydroxypropylcellulose) (HPC) 105 % of control | [1] 108 % of control | dose: 150.0 mg/kg/injection, schedule: Q01DX009 (ip), vehicle: Klucel (hydroxypropylcellulose) (HPC) 107 % of control | [2] 108 % of control

COc1cc(NC(=O)Nc2cccc(Cl)c2)c(OC)cc1Cl
inactive: dose: 25.0 mg/kg/injection, schedule: Q04DX002 (ip), vehicle: saline with Tween-80 99 % of control | dose: 50.0 mg/kg/injection, schedule: Q04DX002 (ip), vehicle: saline with Tween-80 99 % of control | dose: 100.0 mg/kg/injection, schedule: Q04DX002 (ip), vehicle: saline with Tween-80 96 % of control

Cc1ccc(Nc2nc(N)nc(N)c2N=O)cc1C
inactive: dose: 100.0 mg/kg/injection, schedule: Q01DX Z (ip), vehicle: methylcellulose (MC) 116 % of control | dose: 200.0 mg/kg/injection, schedule: Q01DX001 (ip), vehicle: Klucel (hydroxypropylcellulose) (HPC) 106 % of control | dose: 200.0 mg/kg/injection, schedule: Q01DX Z (ip), vehicle: methylcellulose (MC) 98 % of control

Source: PubChem BioAssay AID248 (DTP/NCI, 2004)
